# Paper PMC7401273, “Unexpected Enhancement of HDACs Inhibition by MeS Substitution at C-2 Position of Fluoro Largazole” (Marine Drugs, 2020)
# Read-outs that look alike come from different tables or passages of the source.
# Assays:
# [1] = target: T1, recombinant human HDAC6 (Homo sapiens, UniProt Q9UBN7); design: method as in PMID 31163697; details: previously reported data; cited from earlier work
# T1 construct: purchased BPS Biosciences
# T1 sequence (Q9UBN7 1-1215): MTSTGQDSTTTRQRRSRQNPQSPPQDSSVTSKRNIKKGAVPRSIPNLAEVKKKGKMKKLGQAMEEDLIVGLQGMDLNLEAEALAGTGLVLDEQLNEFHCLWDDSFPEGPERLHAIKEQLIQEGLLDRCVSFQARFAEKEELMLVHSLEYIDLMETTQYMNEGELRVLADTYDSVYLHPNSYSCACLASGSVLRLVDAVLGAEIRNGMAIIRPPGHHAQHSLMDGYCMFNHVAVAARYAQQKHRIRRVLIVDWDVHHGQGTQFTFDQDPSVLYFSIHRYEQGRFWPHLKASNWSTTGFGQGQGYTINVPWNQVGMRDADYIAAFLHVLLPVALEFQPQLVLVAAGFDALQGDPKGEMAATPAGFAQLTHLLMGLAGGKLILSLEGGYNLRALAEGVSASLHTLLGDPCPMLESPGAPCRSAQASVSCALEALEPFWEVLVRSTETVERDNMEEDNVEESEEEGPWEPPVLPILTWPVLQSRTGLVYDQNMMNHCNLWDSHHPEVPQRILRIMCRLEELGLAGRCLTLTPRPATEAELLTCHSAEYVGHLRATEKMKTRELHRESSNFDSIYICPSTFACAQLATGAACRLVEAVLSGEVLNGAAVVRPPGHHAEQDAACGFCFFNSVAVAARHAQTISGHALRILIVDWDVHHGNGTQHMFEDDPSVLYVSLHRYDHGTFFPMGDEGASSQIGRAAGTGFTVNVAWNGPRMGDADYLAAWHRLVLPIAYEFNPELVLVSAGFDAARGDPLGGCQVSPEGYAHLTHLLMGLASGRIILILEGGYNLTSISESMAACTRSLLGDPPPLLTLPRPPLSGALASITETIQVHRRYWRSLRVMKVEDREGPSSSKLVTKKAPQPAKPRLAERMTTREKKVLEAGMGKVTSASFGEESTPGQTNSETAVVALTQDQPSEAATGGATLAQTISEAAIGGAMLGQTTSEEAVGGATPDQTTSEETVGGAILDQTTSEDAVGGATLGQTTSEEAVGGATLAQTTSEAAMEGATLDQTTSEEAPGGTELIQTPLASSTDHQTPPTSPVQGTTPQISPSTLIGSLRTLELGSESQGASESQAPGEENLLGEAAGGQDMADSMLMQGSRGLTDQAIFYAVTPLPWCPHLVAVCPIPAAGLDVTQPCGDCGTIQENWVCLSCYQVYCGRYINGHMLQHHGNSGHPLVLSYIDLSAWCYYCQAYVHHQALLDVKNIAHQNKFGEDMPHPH
# [2] = target: T2, recombinant human HDAC1 (Homo sapiens, UniProt Q13547); design: method as in PMID 31163697; details: previously reported data, cited from earlier work; for Selectivity (HDAC1/6): selectivity of HDAC1 over HDAC6
# T2 construct: purchased BPS Biosciences
# T2 sequence (Q13547 whole entry): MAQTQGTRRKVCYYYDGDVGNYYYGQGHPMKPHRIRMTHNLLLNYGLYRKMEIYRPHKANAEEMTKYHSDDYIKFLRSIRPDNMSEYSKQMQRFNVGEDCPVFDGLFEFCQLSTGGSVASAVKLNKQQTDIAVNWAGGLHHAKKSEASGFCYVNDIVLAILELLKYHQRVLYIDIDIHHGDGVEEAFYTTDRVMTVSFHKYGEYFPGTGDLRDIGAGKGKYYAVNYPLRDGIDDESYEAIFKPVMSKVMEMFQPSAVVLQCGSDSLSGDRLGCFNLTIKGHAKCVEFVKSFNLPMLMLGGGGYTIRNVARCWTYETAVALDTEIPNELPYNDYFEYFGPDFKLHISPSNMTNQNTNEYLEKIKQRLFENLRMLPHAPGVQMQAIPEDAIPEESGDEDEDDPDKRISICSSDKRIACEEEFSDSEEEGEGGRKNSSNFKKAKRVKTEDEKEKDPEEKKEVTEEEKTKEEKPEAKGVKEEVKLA
# [3] = target: T3, recombinant human HDAC8 (Homo sapiens, UniProt Q9BY41); design: method as in PMID 31163697; details: previously reported data; cited from earlier work
# T3 construct: purchased BPS Biosciences
# T3 sequence (Q9BY41 1-377): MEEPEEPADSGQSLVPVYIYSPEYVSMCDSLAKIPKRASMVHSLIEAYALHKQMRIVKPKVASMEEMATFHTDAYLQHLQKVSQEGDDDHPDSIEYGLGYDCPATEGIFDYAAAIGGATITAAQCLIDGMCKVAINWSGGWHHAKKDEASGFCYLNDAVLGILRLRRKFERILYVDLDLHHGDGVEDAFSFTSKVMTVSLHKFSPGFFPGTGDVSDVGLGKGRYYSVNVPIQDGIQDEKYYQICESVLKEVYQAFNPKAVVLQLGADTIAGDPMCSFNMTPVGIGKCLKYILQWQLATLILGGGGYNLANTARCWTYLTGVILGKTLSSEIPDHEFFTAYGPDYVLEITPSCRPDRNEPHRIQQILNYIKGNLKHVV
# [4] = target: T4, recombinant human HDAC3 (Homo sapiens, UniProt O15379); design: method as in PMID 31163697; details: previously reported data; cited from earlier work
# T4 construct: purchased BPS Biosciences
# T4 sequence (O15379 whole entry): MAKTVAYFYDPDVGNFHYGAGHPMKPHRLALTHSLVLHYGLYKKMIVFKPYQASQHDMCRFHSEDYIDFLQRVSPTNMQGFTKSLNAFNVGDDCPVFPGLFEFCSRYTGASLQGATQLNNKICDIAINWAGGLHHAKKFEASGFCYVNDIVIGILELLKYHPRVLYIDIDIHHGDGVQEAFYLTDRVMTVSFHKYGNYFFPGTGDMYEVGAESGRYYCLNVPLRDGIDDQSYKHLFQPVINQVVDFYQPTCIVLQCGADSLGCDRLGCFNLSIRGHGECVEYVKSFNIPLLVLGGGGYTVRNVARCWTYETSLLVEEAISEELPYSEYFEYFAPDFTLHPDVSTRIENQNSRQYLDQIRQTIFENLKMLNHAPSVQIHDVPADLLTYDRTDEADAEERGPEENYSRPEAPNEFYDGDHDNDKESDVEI
# T4 sequence (Q9Y618 395-489 partner limits assumed): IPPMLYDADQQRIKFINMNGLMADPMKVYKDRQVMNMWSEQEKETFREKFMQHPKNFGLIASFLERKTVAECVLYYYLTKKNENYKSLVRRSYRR
# [5] = target: T5, recombinant human HDAC2 (Homo sapiens, UniProt Q92769); design: method as in PMID 31163697; details: previously reported data; cited from earlier work
# T5 construct: purchased BPS Biosciences
# T5 sequence (Q92769 whole entry): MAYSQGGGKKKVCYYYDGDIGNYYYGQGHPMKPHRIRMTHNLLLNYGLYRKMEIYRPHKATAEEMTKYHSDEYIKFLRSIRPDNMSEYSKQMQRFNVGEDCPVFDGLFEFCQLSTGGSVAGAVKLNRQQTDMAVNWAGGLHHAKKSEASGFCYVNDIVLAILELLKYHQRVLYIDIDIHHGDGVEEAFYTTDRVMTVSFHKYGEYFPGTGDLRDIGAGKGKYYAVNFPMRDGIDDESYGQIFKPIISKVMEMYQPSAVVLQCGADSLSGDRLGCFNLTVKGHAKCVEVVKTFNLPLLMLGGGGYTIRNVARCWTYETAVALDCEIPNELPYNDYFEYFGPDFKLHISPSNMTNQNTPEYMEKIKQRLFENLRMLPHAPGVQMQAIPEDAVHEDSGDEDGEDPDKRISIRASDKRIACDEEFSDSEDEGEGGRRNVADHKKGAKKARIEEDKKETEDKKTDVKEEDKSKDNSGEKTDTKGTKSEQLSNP
# [6] = target: T3, recombinant human HDAC8; test: recombinant human HDAC8 enzymatic assay; format: biochemical; details: 10-dose IC50 mode in duplicate, three-fold serial dilution
# Protocol: (§1) The assays were carried out by Shanghai ChemPartner Co., Ltd (Shanghai, China), according to our previous method. Briefly, different concentrations of compounds were incubated with recombinant human HDAC1, HDAC2, HDAC3, HDAC6 and HDAC8 (BPS Biosciences, San Diego, CA, USA) at room temperature for 15 min, which was followed by adding Ac-peptide-AMC substrates to initiate the reaction in Tris-based assay buffer. Reaction mixtures were incubated at room temperature for 60 min in HDAC1, HDAC2, HDAC3 and HDAC6 assays, and were incubated for 240 min in HDAC8 assay. Then, the stop solution containing trypsin was added. The coupled reaction was incubated for another 90 min at 37 °C. Fluorescent AMC released from substrate was measured in SynergyMx (BioTek, Winooski, VT, US) using filter sets as excitation = 355 nm and emission = 460 nm. IC50 values were calculated by GraphPad Prism software (7.0 version., GraphPad Software, San Diego, CA, USA).
# [7] = target: T4, recombinant human HDAC3; test: recombinant human HDAC3 enzymatic assay; format: biochemical; details: 10-dose IC50 mode in duplicate, three-fold serial dilution
# Protocol: as §1
# [8] = target: T1, recombinant human HDAC6; test: recombinant human HDAC6 enzymatic assay; format: biochemical; details: 10-dose IC50 mode in duplicate, three-fold serial dilution
# Protocol: as §1
# [9] = target: T5, recombinant human HDAC2; test: recombinant human HDAC2 enzymatic assay; format: biochemical; details: 10-dose IC50 mode in duplicate, three-fold serial dilution
# Protocol: The assays were carried out by Shanghai ChemPartner Co., Ltd (Shanghai, China), according to our previous method [23, 24]. Briefly, different concentrations of compounds were incubated with recombinant human HDAC1, HDAC2, HDAC3, HDAC6 and HDAC8 (BPS Biosciences, San Diego, CA, USA) at room temperature for 15 min, which was followed by adding Ac-peptide-AMC substrates to initiate the reaction in Tris-based assay buffer. Reaction mixtures were incubated at room temperature for 60 min in HDAC1, HDAC2, HDAC3 and HDAC6 assays, and were incubated for 240 min in HDAC8 assay. Then, the stop solution containing trypsin was added. The coupled reaction was incubated for another 90 min at 37 °C. Fluorescent AMC released from substrate was measured in SynergyMx (BioTek, Winooski, VT, US) using filter sets as excitation = 355 nm and emission = 460 nm. IC50 values were calculated by GraphPad Prism software (7.0 version., GraphPad Software, San Diego, CA, USA).
# [10] = target: T2, recombinant human HDAC1; test: recombinant human HDAC1 enzymatic assay; format: biochemical; details: 10-dose IC50 mode in duplicate, three-fold serial dilution
# Protocol: as §1
# [11] = system: Eca-109 cells; test: in vitro growth inhibition (MTT), Eca-109 cells; format: cell-based; details: Homo sapiens, 72 h, at least seven-dose, duplicate
# Protocol: (§2) Eca-109, Bel 7402 and U937 cell lines were purchased from ATCC (Manassas, VA, USA), and the other tested cell lines were obtained from the Shanghai Institute for Biological Sciences, Chinese Academy of Sciences (Shanghai, China). MDA-MB-231, Hela, Eca-109 and Bel 7402 cells were cultured in DMEM medium supplemented with 10% heat-inactivated fetal bovine serum, 100 U/mL penicillin and 100 μg/mL streptomycin (Beyotime Biotech, Shanghai, China). A549 cells were cultured in F-12K medium supplemented with 10% heat-inactivated fetal bovine serum, 100 U/mL penicillin and 100 μg/mL streptomycin. HCT116 and SK-OV-3 cells were cultured in McCoy’s 5A medium supplemented with 10% heat-inactivated fetal bovine serum, 100 U/mL penicillin and 100 μg/mL streptomycin. U937 cells were cultured in RPMI-1640 medium supplemented with 10% heat inactivated fetal bovine serum, 100 U/mL penicillin and 100 μg/mL streptomycin. All cells were cultured at 37 °C in humidified air containing 5% CO2. According to our previous method, A549, HCT116, MDA-MB-231, SK-OV-3, Hela, Eca-109, Bel 7403 and U937 (600,000 cells/well) were seeded in 96-well plates and incubated for 24 h before being treated with various concentration of compounds or solvent control. […] The absorbance at 550 nm was measured by a SpectraMAX340 microplate reader (Molecular Devices, San Jose, CA, USA) with a reference wavelength at 690 nm. […]
# [12] = system: Hela cells; test: in vitro growth inhibition (MTT), Hela cells; format: cell-based; details: Homo sapiens, 72 h, at least seven-dose, duplicate
# Protocol: as §2
# [13] = system: Bel 7402 cells; test: in vitro growth inhibition (MTT), Bel 7402 cells; format: cell-based; details: Homo sapiens, 72 h, at least seven-dose, duplicate
# Protocol: as §2
# [14] = system: SK-OV-3 cells; test: in vitro growth inhibition (MTT), SK-OV-3 cells; format: cell-based; details: Homo sapiens, 72 h, at least seven-dose, duplicate
# Protocol: (§3) Eca-109, Bel 7402 and U937 cell lines were purchased from ATCC (Manassas, VA, USA), and the other tested cell lines were obtained from the Shanghai Institute for Biological Sciences, Chinese Academy of Sciences (Shanghai, China). MDA-MB-231, Hela, Eca-109 and Bel 7402 cells were cultured in DMEM medium supplemented with 10% heat-inactivated fetal bovine serum, 100 U/mL penicillin and 100 μg/mL streptomycin (Beyotime Biotech, Shanghai, China). A549 cells were cultured in F-12K medium supplemented with 10% heat-inactivated fetal bovine serum, 100 U/mL penicillin and 100 μg/mL streptomycin. HCT116 and SK-OV-3 cells were cultured in McCoy’s 5A medium supplemented with 10% heat-inactivated fetal bovine serum, 100 U/mL penicillin and 100 μg/mL streptomycin. U937 cells were cultured in RPMI-1640 medium supplemented with 10% heat inactivated fetal bovine serum, 100 U/mL penicillin and 100 μg/mL streptomycin. All cells were cultured at 37 °C in humidified air containing 5% CO2. According to our previous method, A549, HCT116, MDA-MB-231, SK-OV-3, Hela, Eca-109, Bel 7403 and U937 (600,000 cells/well) were seeded in 96-well plates and incubated for 24 h before being treated with various concentration of compounds or solvent control. Cells were further incubated for 72 h and then treated with MTT and incubated for another 3 h. The media was then removed and 100 μL DMSO was added to each well. The absorbance at 550 nm was measured by a SpectraMAX340 microplate reader (Molecular Devices, San Jose, CA, USA) with a reference wavelength at 690 nm. Adriamycin was used as a positive control in the assay.
# [15] = system: A549, HCT116 and SK-OV-3 cells; test: in vitro growth inhibition (MTT), range over three cell lines; format: cell-based; details: towards A549, HCT116 and SK-OV-3 cells
# Protocol: as §2
# [16] = system: HCT116 cells; test: in vitro growth inhibition (MTT), HCT116 cells; format: cell-based; details: Homo sapiens, HCT-116, 72 h, at least seven-dose, duplicate
# Protocol: as §3
# [17] = system: U937 cells; test: in vitro growth inhibition (MTT), U937 cells; format: cell-based; details: Homo sapiens, U-937, 72 h, at least seven-dose, duplicate
# Protocol: as §2
# [18] = system: MDA-MB-231 cells; test: in vitro growth inhibition (MTT), MDA-MB-231 cells; format: cell-based; details: Homo sapiens, 72 h, at least seven-dose, duplicate
# Protocol: as §3
# [19] = system: A549 cells; test: in vitro growth inhibition (MTT), A549 cells; format: cell-based; details: Homo sapiens, 72 h, at least seven-dose, duplicate
# Protocol: as §3
Structure (SMILES),IC50 [1],IC50 [2],Selectivity (HDAC1/6) [2],IC50 [3],IC50 [4],IC50 [5],IC50 [11],IC50 [12],IC50 [13],IC50 [14],IC50 [16],IC50 [17],IC50 [18],IC50 [19],other results
CC(C)C1NC(=O)C2(C)CSC(=N2)c2csc(n2)CNC(=O)CC(C(F)=CCCS)OC1=O (centres unmarked) [Compound 15a],0.3 ± 0.005 µM,0.00439 ± 0.00017 µM,68,0.00838 ± 0.00246 µM,0.0392 ± 0.0023 µM,0.021 ± 0.0003 µM,,,,,,,,,
CC12CSC(=N1)c1csc(n1)CNC(=O)CC(C(F)=CCCS)OC(=O)C(Cc1ccccc1)NC2=O (centres unmarked) [Compound 15b],0.338 ± 0.017 µM,0.00424 ± 0.00038 µM,80,0.0175 ± 0.0042 µM,0.0371 ± 0.0008 µM,0.0163 ± 0.0004 µM,,,,,,,,,
"CSCC1NC(=O)C2(C)CSC(=N2)c2csc(n2)CNC(=O)CC(C(F)=CCCS)OC1=O [Compound 15c, (1^2Z,2^2Z,2^4R,8S)-8-((Z)-1-fluoro-4-mercaptobut-1-en-1-yl)-2^4-methyl-5-((methylthio)methyl)-2^4,2^5-dihydro-7-oxa-4,11-diaza-1(4,2),2(2,4)-dithiazolacyclododecaphane-3,6,10-trione]",,,,,,,,,,,,,,,IC50 [6]: 0.00044 ± 0.00016 µM; IC50 [7]: 0.00233 ± 0.00015 µM; IC50 [8]: 0.0239 µM; IC50 [9]: 0.00133 ± 2e-05 µM; IC50 [10]: 0.00027 ± 2e-05 µM
"CCCCCCCC(=O)SCC/C=C(\F)[C@@H]1CC(=O)NCc2nc(cs2)C2=N[C@@](C)(CS2)C(=O)N[C@@H](CSC)C(=O)O1 [Compound 16c, S-((Z)-4-fluoro-4-((1^2Z,2^2Z,2^4R,5R,8S)-2^4-methyl-5-((methylthio)methyl)-3,6,10-trioxo-2^4,2^5-dihydro-7-oxa-4,11-diaza-1(4,2),2(2,4)-dithiazolacyclododecaphane-8-yl)but-3-en-1-yl) octanethioate]",,,,,,,0.09 ± 0.02 µM,0.1 ± 0.01 µM,0.25 ± 0.07 µM,3.13 ± 0.5 µM,1.41 ± 0.54 µM,0.08 ± 0.02 µM,> 10 µM,2.92 ± 0.53 µM,IC50 [15]: 1.41 to 3.13 µM
"CCCCCCCC(=O)SCC/C=C(\F)[C@@H]1CC(=O)NCc2nc(cs2)C2=N[C@@](C)(CS2)C(=O)NCC(=O)O1 [Compound 16d, S-((Z)-4-fluoro-4-((1^2Z,2^2Z,2^4R,8S)-2^4-methyl-3,6,10-trioxo-2^4,2^5-dihydro-7-oxa-4,11-diaza-1(4,2),2(2,4)-dithiazolacyclododecaphane-8-yl)but-3-en-1-yl) octanethioate]",,,,,,,,,,> 10 µM,6.62 ± 1.86 µM,,> 10 µM,> 10 µM,
CCCCCCCC(=O)SCC/C=C/[C@@H]1CC(=O)NCc2nc(cs2)C2=N[C@@](C)(CS2)C(=O)N[C@@H](C(C)C)C(=O)O1 [largazole],,,,,,,0.1 µM,0.17 ± 0.01 µM,0.17 ± 0.02 µM,0.25 ± 0.17 µM,0.11 ± 0.01 µM,0.02 µM,4.75 ± 1.95 µM,0.52 ± 0.17 µM,
